These compounds were tested against T1, aurora-A (human) (Homo sapiens, UniProt O14965) (assay: Aurora-A (human) kinase assay). Details: read-out: Activity (Aurora A activity, IC50 grading).
T1 construct: purchased Upstate, Dundee, UK
T1 sequence (O14965 1-403): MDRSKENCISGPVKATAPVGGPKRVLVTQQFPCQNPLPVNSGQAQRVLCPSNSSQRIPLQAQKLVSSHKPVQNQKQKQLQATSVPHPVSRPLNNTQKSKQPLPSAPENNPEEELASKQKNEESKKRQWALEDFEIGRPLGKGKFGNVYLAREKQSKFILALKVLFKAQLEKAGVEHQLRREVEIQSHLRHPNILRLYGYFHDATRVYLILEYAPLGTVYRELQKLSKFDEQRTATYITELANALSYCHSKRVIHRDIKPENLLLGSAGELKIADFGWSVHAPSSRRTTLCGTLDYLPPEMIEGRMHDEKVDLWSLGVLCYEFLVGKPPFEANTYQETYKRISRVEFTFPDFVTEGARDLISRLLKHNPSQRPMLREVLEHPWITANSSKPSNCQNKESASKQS
Format: biochemical
Procedure: This was achieved by measurement of incorporation of radioactive phosphate from ATP into Kemptide substrate (LRRASLG), upon phosphorylation by commercially obtained aurora-A (human, Upstate; Dundee, UK). Assays were performed using 96-well plates and appropriate assay buffers (20 mM Tris, 25 mM β-glycerophosphate, 5 mM EGTA, 1 mM DTT, 1 mM sodium vanadate, pH 7.5), into which were added 2-5 ng of active enzyme with 500 μM substrate (Kemptide). The reactions were initiated by addition of MATP mix (15 mM MgCl2+100 μM ATP with 15-25 kBq per well of [γ-^32P]-ATP) and mixtures incubated for 30 min at 30° C. Reactions were stopped by addition of an equal volume of 75 mM aq orthophosphoric acid, followed by filtration through p81 filterplates (Whatman Polyfiltronics, Kent, UK). After washing 4 times with 75 mM aq orthophosphoric acid, plates were dried, scintillant added and incorporated radioactivity measured in a scintillation counter (TopCount, Packard Instruments, Pangbourne, Berks, UK). Compounds for kinase assay were made up as 10 mM stocks in DMSO and diluted into 10% DMSO in assay buffer. Data was analysed using curve-fitting software (XLfit version 4.0.2, IDBS, Guildford, Surrey, UK) to determine IC50 values (concentration of test compound which inhibits kinase activity by 50%).

COc1ccc(Nc2nccc(-c3c(C)c4n(c3C)CCNC4=O)n2)cc1 [Example I-4, 7-[2-(4-Methoxy-phenylamino)-pyrimidin-4-yl]-6,8-dimethyl-3,4-dihydro-2H-pyrrolo[1,2-a]pyrazin-1-one] and Cc1c(-c2ccnc(Nc3ccc(Br)cc3)n2)c(C)n2c1C(=O)NCC2 [Example I-14, 7-[2-(4-Bromo-phenylamino)-pyrimidin-4-yl]-6,8-dimethyl-3,4-dihydro-2H-pyrrolo[1,2-a]pyrazin-1-one] cannot be ordered by IC50: less than 1 µM for the first, less than 1 µM for the second.

Cc1c(-c2ccnc(Nc3cccc([N+](=O)[O-])c3)n2)c(C)n2c1C(=O)NCC2 [Example I-5, 6,8-Dimethyl-7-[2-(3-nitro-phenylamino)-pyrimidin-4-yl]-3,4-dihydro-2H-pyrrolo[1,2-a]pyrazin-1-one] and Cc1c(-c2ccnc(Nc3cccc(C(=O)O)c3)n2)c(C)n2c1C(=O)NCC2 [Example I-25, [4-(6,8-Dimethyl-1-oxo-1,2,3,4-tetrahydro-pyrrolo[1,2-a]pyrazin-7-yl)-pyrimidin-2-ylamino]-benzoic acid] cannot be ordered by IC50: less than 1 µM for the first, less than 1 µM for the second.

Cc1c(-c2ccnc(Nc3ccc(N(C)C)cc3)n2)c(C)n2c1C(=O)NCC2 [Example I-6, 7-[2-(4-Dimethylamino-phenylamino)-pyrimidin-4-yl]-6,8-dimethyl-3,4-dihydro-2H-pyrrolo[1,2-a]pyrazin-1-one] and CCN(CC)c1ccc(Nc2nccc(-c3c(C)c4n(c3C)CCNC4=O)n2)cc1 [Example I-13, 7-[2-(4-Diethylamino-phenylamino)-pyrimidin-4-yl]-6,8-dimethyl-3,4-dihydro-2H-pyrrolo[1,2-a]pyrazin-1-one] cannot be ordered by IC50: less than 1 µM for the first, less than 1 µM for the second.

CC(=O)N1CCN(c2ccc(Nc3nccc(-c4c(C)c5n(c4C)CCNC5=O)n3)cc2)CC1 [Example I-7, 7-{2-[4-(4-Acetyl-piperazin-1-yl)-phenylamino]-pyrimidin-4-yl}-6,8-dimethyl-3,4-dihydro-2H-pyrrolo[1,2-a]pyrazin-1-one] and CC(=O)N1CCN(c2ccc(Nc3nccc(-c4c(C)c5n(c4C)CCNC5=O)n3)cc2C)CC1 [Example I-8, 7-{2-[4-(4-Acetyl-piperazin-1-yl)-3-methyl-phenylamino]-pyrimidin-4-yl}-6,8-dimethyl-3,4-dihydro-2H-pyrrolo[1,2-a]pyrazin-1-one] cannot be ordered by IC50: less than 1 µM for the first, less than 1 µM for the second.

COc1cc(Nc2nccc(-c3c(C)c4n(c3C)CCNC4=O)n2)ccc1N1CCN(C(C)=O)CC1 [Example I-9, 7-{2-[4-(4-Acetyl-piperazin-1-yl)-3-methoxy-phenylamino]-pyrimidin-4-yl}-6,8-dimethyl-3,4-dihydro-2H-pyrrolo[1,2-a]pyrazin-1-one] and COc1cc(Nc2nccc(-c3c(C)c4n(c3C)CCNC4=O)n2)ccc1S(=O)(=O)N1CCN(C)CC1 [Example I-24, 7-{2-[3-Methoxy-4-(4-methyl-piperazine-1-sulfonyl)-phenylamino]-pyrimidin-4-yl}-6,8-dimethyl-3,4-dihydro-2H-pyrrolo[1,2-a]pyrazin-1-one] cannot be ordered by IC50: less than 1 µM for the first, less than 1 µM for the second.

Cc1c(-c2ccnc(Nc3ccc4cn[nH]c4c3)n2)c(C)n2c1C(=O)NCC2 [Example I-11, 7-[2-(1H-Indazol-6-ylamino)-pyrimidin-4-yl]-6,8-dimethyl-3,4-dihydro-2H-pyrrolo[1,2-a]pyrazin-1-one] and Cc1c(-c2ccnc(Nc3ccc4c(c3)OCC(=O)N4)n2)c(C)n2c1C(=O)NCC2 [Example I-12, 7-[4-(6,8-Dimethyl-1-oxo-1,2,3,4-tetrahydro-pyrrolo[1,2-a]pyrazin-7-yl)-pyrimidin-2-ylamino]-4H-benzo[1,4]oxazin-3-one] cannot be ordered by IC50: less than 1 µM for the first, less than 1 µM for the second.

Cc1c(-c2ccnc(Nc3ccc(N4CCOCC4)nc3)n2)c(C)n2c1C(=O)NCC2 [Example I-13a, 6,8-Dimethyl-7-[2-(6-morpholin-4-yl-pyridin-3-ylamino)-pyrimidin-4-yl]-3,4-dihydro-2H-pyrrolo[1,2-a]pyrazin-1-one] and COc1ccc(Nc2nccc(-c3c(C)c4n(c3C)CCNC4=O)n2)cn1 [Example I-13b, 7-[2-(6-Methoxy-pyridin-3-ylamino)-pyrimidin-4-yl]-6,8-dimethyl-3,4-dihydro-2H-pyrrolo[1,2-a]pyrazin-1-one] cannot be ordered by IC50: less than 1 µM for the first, less than 1 µM for the second.

Cc1c(-c2ccnc(Nc3cccc(S(=O)(=O)CCO)c3)n2)c(C)n2c1C(=O)NCC2 [Example I-15, 7-{2-[3-(2-Hydroxy-ethanesulfonyl)-phenylamino]-pyrimidin-4-yl}-6,8-dimethyl-3,4-dihydro-2H-pyrrolo[1,2-a]pyrazin-1-one] and Cc1c(-c2ccnc(Nc3ccc(NS(C)(=O)=O)cc3)n2)c(C)n2c1C(=O)NCC2 [Example I-20, N-{4-[4-(6,8-Dimethyl-1-oxo-1,2,3,4-tetrahydro-pyrrolo[1,2-a]pyrazin-7-yl)-pyrimidin-2-ylamino]-phenyl}-methanesulfonamide] cannot be ordered by IC50: less than 1 µM for the first, less than 1 µM for the second.

Cc1c(-c2ccnc(Nc3ccc4sc(C(=O)O)cc4c3)n2)c(C)n2c1C(=O)NCC2 [Example I-16, 5-[4-(6,8-Dimethyl-1-oxo-1,2,3,4-tetrahydro-pyrrolo[1,2-a]pyrazin-7-yl)-pyrimidin-2-ylamino]-benzo[b]thiophene-2-carboxylic acid] and Cc1c(-c2ccnc(Nc3ccc(C(=O)O)cc3)n2)c(C)n2c1C(=O)NCC2 [Example I-26, 4-[4-(6,8-Dimethyl-1-oxo-1,2,3,4-tetrahydro-pyrrolo[1,2-a]pyrazin-7-yl)-pyrimidin-2-ylamino]-benzoic acid] cannot be ordered by IC50: less than 0.1 µM for the first, less than 0.1 µM for the second.

Cc1c(-c2ccnc(Nc3ccc(O)cc3)n2)c(C)n2c1C(=O)NCC2 [Example I-17, 7-[2-(4-Hydroxy-phenylamino)-pyrimidin-4-yl]-6,8-dimethyl-3,4-dihydro-2H-pyrrolo[1,2-a]pyrazin-1-one] and Cc1c(-c2ccnc(Nc3ccc(S(=O)(=O)NC(C)C)cc3)n2)c(C)n2c1C(=O)NCC2 [Example I-19, 4-[4-(6,8-Dimethyl-1-oxo-1,2,3,4-tetrahydro-pyrrolo[1,2-a]pyrazin-7-yl)-pyrimidin-2-ylamino]-N-isopropyl-benzenesulfonamide] cannot be ordered by IC50: less than 1 µM for the first, less than 1 µM for the second.

COc1cc(Nc2nccc(-c3c(C)c4n(c3C)CCNC4=O)n2)ccc1S(=O)(=O)NC(C)C [Example I-18, 4-[4-(6,8-Dimethyl-1-oxo-1,2,3,4-tetrahydro-pyrrolo[1,2-a]pyrazin-7-yl)-pyrimidin-2-ylamino]-N-isopropyl-2-methoxy-benzenesulfonamide] and COc1cc(Nc2nccc(-c3c(C)c4n(c3C)CCNC4=O)n2)ccc1S(=O)(=O)NCCN(C)C [Example I-23, N-(2-Dimethylamino-ethyl)-4-[4-(6,8-dimethyl-1-oxo-1,2,3,4-tetrahydro-pyrrolo[1,2-a]pyrazin-7-yl)-pyrimidin-2-ylamino]-2-methoxy-benzenesulfonamide] cannot be ordered by IC50: less than 0.1 µM for the first, less than 1 µM for the second.

CCN(CC)CCCNS(=O)(=O)c1ccc(Nc2nccc(-c3c(C)c4n(c3C)CCNC4=O)n2)cc1C [Example I-21, N-(3-Diethylamino-propyl)-4-[4-(6,8-dimethyl-1-oxo-1,2,3,4-tetrahydro-pyrrolo[1,2-a]pyrazin-7-yl)-pyrimidin-2-ylamino]-2-methyl-benzenesulfonamide] and COc1cc(Nc2nccc(-c3c(C)c4n(c3C)CCNC4=O)n2)ccc1S(=O)(=O)N1CCCCC1 [Example I-22, 7-{2-[3-Methoxy-4-(piperidine-1-sulfonyl)-phenylamino]-pyrimidin-4-yl}-6,8-dimethyl-3,4-dihydro-2H-pyrrolo[1,2-a]pyrazin-1-one] cannot be ordered by IC50: less than 10 µM for the first, less than 1 µM for the second.

Reference: US8404692B2, “Pyrimidin-4-yl-3, 4-dihydro-2H-pyrrolo [1,2A] pyrazin-1-one compounds” (Cyclacel Limited, priority 2005, dated 2013)
